Measurements as given in publication PMC11312813, “An Optimized Peptide Antagonist of CXCR4 Limits Survival of BCR–ABL1-Transformed Cells in Philadelphia-Chromosome-Positive B-Cell Acute Lymphoblastic Leukemia” (International Journal of Molecular Sciences, 2024).
Structures can show the parent of a compound that is named as a salt.

Key:
CXCR4 [1] = assay: CXCL12-driven calcium flux in SupB15 cells; type: cell-based; conditions: 1 µM, 10 min pre-treatment, 100 ng/mL human CXCL12; n = 3
Experimental: (§1) Ca^2+ signaling was analyzed as described previously. Briefly, SupB15 and 697 cells were collected at 1 × 10^6 cells/treatment and loaded with calcium-sensitive dye Indo-1 AM (#I1223, Invitrogen) and 0.5 mg/mL of pluronic F-127 (#P3000MP, Invitrogen) in their respective media supplemented with 1% FBS at 37 °C for 45 min. Cells were then washed and treated with the inhibitors for 10 min at 37 °C. Baseline signal for calcium was measured for 30 s via flow cytometry, followed by stimulation with 100 ng/mL human CXCL12. The area under the curve (AUC) of each calcium flux plot was determined using FlowJo. The AUC of the water control (solvent for CXCL12) was subtracted from each treatment to obtain the correct estimation of the calcium signal upon CXCL12 stimulation.

CXCR4 [2] = conditions: ref [14],[17]; cited from earlier work
SupB15 cells = assay: Flow cytometric cell survival analysis, SupB15; type: cell-based, human; conditions: for SupB15 cell survival vs DMSO: 10 µM, 24–96 h, n = 3; for Dead gate (viability dye) / Live gate (viability dye): JM#170 10 µM, representative histogram of n = 3
Experimental: (§2) Cells treated with either solvent control DMSO or different concentrations of inhibitors for different time points were collected and washed with ice-cold PBS. […] After washing, labeled cells were resuspended in 100 μL of PBS and acquired using LSR-Fortessa (BD Bioscience, Heidelberg, Germany). FACS data were analyzed with FlowJo software version 10.0.

caspase 3/7 = assay: Caspase-Glo 3/7 activation assay in BCR–ABL1 cells; type: cell-based, mouse; conditions: 10 µM, 24 and 48 h; n = 3
Experimental: (§3) BCR–ABL1 cells were plated at 0.5 × 10^5 cells/well of a 96-well plate in 100 μL of complete media and treated with DMSO or various inhibitors. At specific time points (24, 48 and 72 h), activation of caspases was measured with a Caspase-Glo® 3/7 Assay (#G8090) and Caspase-Glo® 8 Assay (#G8200, Promega, Madison, WI, USA) following the manufacturer’s instructions.

CXCR4 [3] = assay: Anti-CXCR4 antibody (clone L276F12) competition assay in BCR–ABL1-transformed mouse B cells; type: binding; conditions: 2 h at 4 °C, FACS, n = 3; for Anti-CXCR4 antibody binding to CXCR4: serially diluted 10 µM to 1 nM
Experimental: An anti-CXCR4 competition assay was conducted as previously described. […] Afterward, the cells were washed to remove unbound inhibitors and antibody, and measured via FACS for the fluorescence signal of the bound antibody. The fluorescence signal corresponding to only antibody (no inhibitor) was considered to be 100% antibody binding.

caspase 8 = assay: Caspase-Glo 8 activation assay in BCR–ABL1 cells; type: cell-based, mouse; conditions: 10 µM; n = 3
Experimental: as §3

[4] = test system: pro/anti-apoptotic genes (Jun, Bax, Bim, Bcl2, Bcl-xl, FasL); assay: Real-time gene expression analysis (Taqman) in BCR–ABL1 cells; type: cell-based, mouse; conditions: 10 µM, n = 3
Experimental: BCR–ABL1 cells were plated at 1 × 10^6 cells/well of a 12-well plate in 1 mL of complete media and treated with DMSO or various inhibitors. After specific time points (24 and 48 h), RNA was isolated from cells using a ReliaPrep Cell RNA miniprep kit (#Z6011, Promega). Fifty nanograms of total RNA was reverse-transcribed using a high-capacity RNA to cDNA kit (#4387406, Thermo Fisher), and gene expression was measured via Taqman assay using Taqman Gene expression master mix (#4369016, Thermo Fisher) following ghd manufacturer’s protocol. The following Taqman probes were used: Jun (Mm07296811_s1), Bax (Mm00432051_m1), Bim (Mm00437796_m1), Bcl2 (Mm00477631_m1), Bcl-xl (00437783_m1), FasL (Mm00438864_m1), and beta actin (04394036_g1).

[5] = test system: ERK1/2 phosphorylation downstream of CXCR4; assay: Western blot, ERK1/2 T202/Y204 phosphorylation in BCR–ABL1 cells; type: cell-based; conditions: 10 µM, 100 ng/mL mouse CXCL12, 5 min; n = 3
Experimental: (§4) BCR–ABL1 cells were collected as 5 × 10^6 cells/500 μL complete media and treated either with DMSO or different inhibitors in the absence and presence of 100 ng/mL mouse CXCL12 for 5, 15, and 30 min at 37 °C. Cells were then immediately transferred onto ice to stop the reaction and washed with ice-cold PBS. Cell extract was prepared by resuspending the cell pellet in 100 μL of radio-immunoprecipitation assay (RIPA) buffer supplemented with 1X protease inhibitor cocktail (#78429, Thermo Fisher), 1 mM sodium orthovanadate (Sigma-Aldrich), and 10 mM beta-glycerophosphate (Sigma-Aldrich). For each treatment, 15 μL of cell extract was mixed with 5 μL of 4X Laemmli buffer (reducing), boiled at 95 °C for 10 min, and run on 10% SDS-PAGE. Gels were wet-transferred to PVDF membranes (Millipore, Burlington, MA, USA) and stained with 0.1% ponceau-S solution to check for efficient blotting. The membranes were blocked with 3% BSA solution and incubated with primary antibodies at 4 °C overnight. The next day, primary antibodies were washed, and membranes were probed with horseradish peroxidase (HRP)-conjugated secondary antibodies at RT for 2 h. After washing, the blots were developed using Immobilon ECL Ultra Western HRP Substrate (#WBULS0500, Millipore), and images were acquired with a Fusion SL gel imaging system (Vilber Lourmat, Eberhardzell, Germany). […]

[6] = test system: AKT phosphorylation (PI3K signaling downstream of CXCR4); assay: Western blot, AKT S473 phosphorylation in BCR–ABL1 cells; type: cell-based; conditions: 10 µM, 100 ng/mL mouse CXCL12, 5 min; n = 3
Experimental: as §4

[7] = test system: BCR–ABL1-transformed mouse B cells; assay: Flow cytometric viability analysis (viability dye); type: cell-based; set-up: Live gate (viability dye) / Dead gate (viability dye): unit not given here; conditions: for Cell viability of BCR–ABL1 cells: 1–72 h, live cell count normalized to DMSO; for Dead gate (viability dye) / Live gate (viability dye): JM#170 10 µM, representative histogram of n = 3
Experimental: as §2

CXCR4 [8] = assay: CXCL12-driven calcium flux in 697 cells; type: cell-based; conditions: 1 µM, 10 min pre-treatment, 100 ng/mL human CXCL12; n = 3
Experimental: as §1

[9] = test system: BCR–ABL1-transformed mouse B cells; assay: Real-time cell growth analysis by IncuCyte (GFP+ cell enrichment); type: cell-based; conditions: over 96 h
Experimental: A flat-bottom 96-well plate was coated with 0.01% poly-L ornithine (#P4957, Sigma-Aldrich, Hamburg, Germany) for 1 h at room temperature (RT). […] The cells were plated in 100 μL complete medium. […] Plate was prewarmed at 37 °C for 30 min prior to placing in the IncuCyte chamber. Scanning was conducted every two hours for total of 4 days.

For `c1cc(CN2CCCNCCNCCCNCC2)ccc1CN1CCCNCCNCCCNCC1` [AMD3100, AMD3100 octahydrochloride hydrate, reference compound], the “CXCL12-induced calcium flux, SupB15” value (CXCR4 [1]) is listed as “completely blocked the calcium flux”, the CXCL12-induced calcium signaling (CXCR4 [2]) is listed as “block the intracellular calcium response” and the “SupB15 cell survival vs DMSO” value (SupB15 cells) is listed as “no effect on SupB15 cell survival”. For the same compound, the “Caspase 3/7 activation vs DMSO” value (caspase 3/7) was “did not induce any caspase activation”, the “Concentration effective in inhibiting antibody binding to CXCR4” value (CXCR4 [3]) was ~ 1 μM and the “Anti-CXCR4 antibody binding to CXCR4” value (CXCR4 [3]) was “significantly inhibited the antibody binding”. For the same compound, the “Caspase 8 activation vs DMSO” value (caspase 8) was “neither JM#170 nor AMD3100 induced caspase 8”, the Pro/anti-apoptotic gene expression ([4]; 24 and 48 h) was “did not upregulate any gene expression” and the “CXCL12-induced ERK1/2 T202/Y204 phosphorylation” value [5] was “this elevation was blocked”. The “CXCL12-induced AKT S473 phosphorylation” value [6] was “this elevation was blocked”, the “Cell viability of BCR–ABL1 cells” value ([7]; 10 µM, n = 3) was “did not induce any loss of cell viability” and the “CXCL12-induced calcium flux, 697” value (CXCR4 [8]) was “completely blocked the calcium flux”. The “GFP enrichment (BCR–ABL1 cell growth) vs DMSO” value (shortened to “GFP enrichment … vs DMSO”) ([9]; 5 µM) was “also detectable” and the “GFP enrichment … vs DMSO” value ([9]; 10 µM, mean ± SEM, n = 4–5) was “only distinct at later time points”.
For “ILRWSRK * (Pal)-NH2 [JM#170, lipid-conjugated truncated version of EPI-X4, CXCR4 antagonist]”, the “CXCL12-induced calcium flux, SupB15” value (CXCR4 [1]) is listed as “completely blocked the calcium flux”, the CXCL12-induced calcium signaling (CXCR4 [2]) is listed as “block CXCL12-induced calcium signaling” and the “SupB15 cell survival vs DMSO” value (SupB15 cells) is listed as “significantly reduced SupB15 cell survival”. The “Dead gate (viability dye)” value (SupB15 cells; 24 h) was 19.0, the “Live gate (viability dye)” value (SupB15 cells; 24 h) was 81.0 and the “Dead gate (viability dye)” value (SupB15 cells; 72 h) was 33.3. The “Live gate (viability dye)” value (SupB15 cells; 72 h) was 66.7, the “Dead gate (viability dye)” value (SupB15 cells; 96 h) was 41.7 and the “Live gate (viability dye)” value (SupB15 cells; 96 h) was 58.3. For the same compound, the “Caspase 3/7 activation vs DMSO” value (caspase 3/7) was “significant increase in caspase 3/7 activation”, the “Concentration effective in inhibiting antibody binding to CXCR4” value (CXCR4 [3]) was ~ 10 nM and the “Anti-CXCR4 antibody binding to CXCR4” value (CXCR4 [3]) was “significantly inhibited the antibody binding”. For the same compound, the “Caspase 8 activation vs DMSO” value (caspase 8) was “neither JM#170 nor AMD3100 induced caspase 8”, the Bax gene expression ([4]; 24 h) was “mildly upregulated” and the Bcl2 gene expression ([4]; 24 h) was “significant increase”. The Bcl-xl gene expression ([4]; 24 h) was “not altered at all”, the Bim gene expression ([4]; 24 h) was “significantly elevated” and the Jun gene expression ([4]; 24 h) was “significantly elevated”. The “Bax, Bim and Bcl2 gene expression” value ([4]; 48 h) was “still significantly elevated levels”, the FasL gene expression [4] was “inactivation of FasL” and the “CXCL12-induced ERK1/2 T202/Y204 phosphorylation” value [5] was “this elevation was blocked”. The “CXCL12-induced AKT S473 phosphorylation” value [6] was “this elevation was blocked”, the “Cell viability of BCR–ABL1 cells” value ([7]; 10 µM, n = 3) was “strong and rapid cell death” and the Cells dying ([7]; 10 µM, within 1 h of treatment, n = 3) was ~ 70%. The “Dead gate (viability dye)” value ([7]; 1 h) was 64.5, the “Live gate (viability dye)” value ([7]; 1 h) was 35.5 and the “Dead gate (viability dye)” value ([7]; 24 h) was 85.0. The “Live gate (viability dye)” value ([7]; 24 h) was 15.0, the “Dead gate (viability dye)” value ([7]; 48 h) was 76.4 and the “Live gate (viability dye)” value ([7]; 48 h) was 23.6. For the same compound, the “Dead gate (viability dye)” value ([7]; 72 h) was 63.6, the “Live gate (viability dye)” value ([7]; 72 h) was 36.4 and the “CXCL12-induced calcium flux, 697” value (CXCR4 [8]) was “completely blocked the calcium flux”. The “GFP enrichment … vs DMSO” value ([9]; 10 µM, mean ± SEM, n = 4–5) was “significant reduction in GFP enrichment”.
